The source of these data is US20260042762A1 (Kymera Therapeutics, Inc., priority 2018, published 2026).

Bounds are passed on as bounds.

One assay concerns the target T1, MerTK (Homo sapiens, UniProt Q12866).
T1 construct: endogenous in cells; host or cells: Jurkat cells
T1 sequence (Q12866 21-999): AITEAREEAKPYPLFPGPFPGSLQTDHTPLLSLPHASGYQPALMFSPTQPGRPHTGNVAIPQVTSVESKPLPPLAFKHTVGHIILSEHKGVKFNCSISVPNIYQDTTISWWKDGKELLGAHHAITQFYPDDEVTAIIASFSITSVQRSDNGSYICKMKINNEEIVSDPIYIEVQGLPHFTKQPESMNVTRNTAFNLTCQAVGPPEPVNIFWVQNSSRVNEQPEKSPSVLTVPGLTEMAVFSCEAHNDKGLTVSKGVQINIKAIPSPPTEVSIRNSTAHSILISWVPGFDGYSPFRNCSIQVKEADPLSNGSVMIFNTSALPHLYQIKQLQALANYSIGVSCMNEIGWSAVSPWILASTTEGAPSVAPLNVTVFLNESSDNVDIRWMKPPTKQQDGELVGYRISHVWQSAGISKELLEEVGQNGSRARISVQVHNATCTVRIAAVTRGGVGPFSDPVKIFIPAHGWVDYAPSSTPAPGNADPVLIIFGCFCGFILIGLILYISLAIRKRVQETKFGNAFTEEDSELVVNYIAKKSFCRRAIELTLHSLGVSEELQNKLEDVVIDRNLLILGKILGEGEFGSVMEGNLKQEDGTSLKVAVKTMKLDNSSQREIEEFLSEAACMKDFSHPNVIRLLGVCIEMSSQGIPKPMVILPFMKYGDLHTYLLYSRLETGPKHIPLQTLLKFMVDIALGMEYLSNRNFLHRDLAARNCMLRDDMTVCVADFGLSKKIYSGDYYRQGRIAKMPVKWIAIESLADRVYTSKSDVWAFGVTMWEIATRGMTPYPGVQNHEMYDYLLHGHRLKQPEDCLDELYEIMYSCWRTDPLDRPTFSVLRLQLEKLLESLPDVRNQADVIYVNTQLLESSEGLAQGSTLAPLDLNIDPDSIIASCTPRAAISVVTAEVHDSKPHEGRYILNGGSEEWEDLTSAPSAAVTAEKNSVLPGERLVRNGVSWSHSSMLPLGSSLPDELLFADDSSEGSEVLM
As to the kind of experiment: MerTk degradation in Jurkat cells (Western blot). It is filed as cell-based. Conditions: 0.001-1 μM, 4 hour-incubation at 37° C., read-out: Jurkat Max % MerTK Degradation. As to the method:
Compounds were reconstituted in DMSO to make 10 mM stock solutions. […] Cells were seeded into 6-well plates with about 5×10^6 cells per well. 2 μL of diluted compounds were added to cells to the final concentration of 0.001-1 μM. After a 4 hour-incubation at 37° C., cells were collected into 2 mL Eppendorf tubes and centrifuged at 1,000 rpm for 5 min. The cell pellets were washed with DPBS (1×) once and resuspended in 60 μL RIPA lysis buffer with Halt Protease and Phophatase Inhibitor Cocktail. The cells were lysed on ice for 10 min, then centrifuged at 14,000 rpm for 10 min at 4° C. and the supernatants were collected for western blots.
The protein concentration of cell lysates was quantified with Pierce™ BCA Protein Assay Kit. […] BCA working reagents were prepared by mixing BCA reagent A with reagent B in 50: 1 ratio. 200 μL of the BCA working reagents were added to 25 μL of BCA standard or cell lysates in microplate, and mixed thoroughly on a plate shaker for 30 seconds. After incubation at 37° C. for 30 min, the absorbance of samples at 562 nm were measured with EnVision Plate Reader.
Protein lysates were prepared in NuPAGE™ LDS sample buffer and NuPAGE™ sample reducing agent, and incubated at 95° C. for 5 min. […] The proteins were transferred to low fluorescence PVDF membranes using the Trans-Blot Turbo Transfer System. Membranes were then blocked in Odyssey blocking buffer at RT for 1 h followed by primary incubation at 4° C. overnight. The primary antibodies were MerTK rabbit monoclonal antibody and actin mouse monoclonal antibody. Membranes were washed three times with TBST (1×), and then incubated with IR Dye 800 CW Goat anti-rabbit and IR Dye 700 CW Goat anti-mouse secondary antibodies in 1:10,000 dilution at RT for 1 h. The Western blot images were obtained using Odyssey Imaging System.
Take `CCCCNc1ncc2c(-c3ccc(CN4CCN(CCCC(=O)NCCCOCCCOCCCc5cccc6c5n(C)c(=O)n6C5CCC(=O)NC5=O)CC4)cc3)cn([C@H]3CC[C@H](O)CC3)c2n1` (stereo partly drawn) [I-8, Trans-4-[4-([4-[2-(butylamino)-7-[4-hydroxycyclohexyl]-7H-pyrrolo[2,3-d]pyrimidin-5-yl]phenyl]methyl)piperazin-1-yl]-N-[3-(3-[3-[1-(2,6-dioxopiperidin-3-yl)-3-methyl-2-oxo-2,3-dihydro-1H-1,3-benzodiazol-4-yl]propoxy]propoxy)propyl]butanamide formic acid]: the Dmax was above 50%.

Staying with this assay, now noted: Jurkat, 4 h, 0.001-1 μM, 4 hour-incubation at 37° C., read-out: Jurkat Max % MerTK Degradation.
Consider `CCCCNc1ncc2c(-c3ccc(S(=O)(=O)N4CCN(CCOCCOCCOCCOCCNc5cccc6c5n(C)c(=O)n6C5CCC(=O)NC5=O)CC4)cc3)cn([C@H]3CC[C@H](O)CC3)c2n1` (relative stereo) [I-35, Trans-3-[4-[15-(4-[4-[2-(butylamino)-7-[-4-hydroxycyclohexyl]-7H-pyrrolo[2,3-d]pyrimidin-5-yl]benzenesulfonyl]piperazin-1-yl)-4,7,10,13-tetraoxa-1-azapentadecan-1-yl]-3-methyl-2-oxo-2,3-dihydro-1H-1,3-benzodiazol-1-yl]piperidine-2,6-dione], for which the Dmax is above 50%. The same measure, in the same setting: in the case of `COCC(C)Nc1ncc2c(-c3ccc(CN4CCN(CCCCCNCCN[C@H](C(=O)N5C[C@H](O)C[C@H]5C(=O)NCc5ccc(-c6scnc6C)cc5)C(C)(C)C)CC4)cc3)cn([C@H]3CC[C@H](O)CC3)c2n1` (stereo partly drawn) [I-3, (2S,4R)-4-Hydroxy-1-[(2S)-2-([2-[(5-[4-[(4-[2-[(1-methoxypropan-2-yl)amino]-7-(trans-4-hydroxycyclohexyl)-7H-pyrrolo[2,3-d]pyrimidin-5-yl]phenyl)methyl]piperazin-1-yl]pentyl)amino]ethyl]amino)-3,3-dimethylbutanoyl]-N-[[4-(4-methyl-1,3-thiazol-5-yl)phenyl]methyl]pyrrolidine-2-carboxamide] it was below 20%. For `COC[C@H](C)Nc1ncc2c(-c3ccc(CN4CCN(CCOCCOCCOCCOCCNc5cccc6c5n(C)c(=O)n6C5CCC(=O)NC5=O)CC4)cc3)cn([C@H]3CC[C@H](O)CC3)c2n1` (stereo partly drawn) [I-4, Trans-3-[4-[15-(4-[[4-(2-[[(2S)-1-methoxypropan-2-yl]amino]-7-[4-hydroxycyclohexyl]-7H-pyrrolo[2,3-d]pyrimidin-5-yl)phenyl]methyl]piperazin-1-yl)-4,7,10,13-tetraoxa-1-azapentadecan-1-yl]-3-methyl-2-oxo-2,3-dihydro-1H-1,3-benzodiazol-1-yl]piperidine-2,6-dione bis(formic acid)], the Dmax is above 50%. Still for that read-out and setting: then `COC[C@@H](C)Nc1ncc2c(-c3ccc(CN4CCN(CCOCCOCCOCCOCCNc5cccc6c5n(C)c(=O)n6C5CCC(=O)NC5=O)CC4)cc3)cn([C@H]3CC[C@H](O)CC3)c2n1` (stereo partly drawn) [I-5, Trans-3-[4-[15-(4-[[4-(2-[[(2R)-1-methoxypropan-2-yl]amino]-7-[4-hydroxycyclohexyl]-7H-pyrrolo[2,3-d]pyrimidin-5-yl)phenyl]methyl]piperazin-1-yl)-4,7,10,13-tetraoxa-1-azapentadecan-1-yl]-3-methyl-2-oxo-2,3-dihydro-1H-1,3-benzodiazol-1-yl]piperidine-2,6-dione bis(formic acid)], with below 20%; and `COC[C@H](C)Nc1ncc2c(-c3ccc(CN4CCN(CCOCCOCCOCCOCCNc5cccc6c5C(=O)N(C5CCC(=O)NC5=O)C6=O)CC4)cc3)cn([C@H]3CC[C@H](O)CC3)c2n1` (stereo partly drawn) [I-11, Trans-2-(2,6-dioxopiperidin-3-yl)-4-[15-(4-[[4-(2-[[(2S)-1-methoxypropan-2-yl]amino]-7-[4-hydroxycyclohexyl]-7H-pyrrolo[2,3-d]pyrimidin-5-yl)phenyl]methyl]piperazin-1-yl)-4,7,10,13-tetraoxa-1-azapentadecan-1-yl]-2,3-dihydro-1H-isoindole-1,3-dione], with above 50%. Regarding `CCCCNc1ncc(-c2ccc(CN3CCN(C(=O)COCCOCCOCCOCCNc4cccc5c4C(=O)N(C4CCC(=O)NC4=O)C5=O)CC3)cn2)c(N[C@H]2CC[C@H](O)CC2)n1` (stereo partly drawn) [I-22, 4-[15-[4-([6-[2-(Butylamino)-4-[[trans-4-hydroxycyclohexyl]amino]pyrimidin-5-yl]pyridin-3-yl]methyl)piperazin-1-yl]-15-oxo-4,7,10,13-tetraoxa-1-azapentadecan-1-yl]-2-(2,6-dioxopiperidin-3-yl)-2,3-dihydro-1H-isoindole-1,3-dione], the Dmax was above 50%. On the same count and under the same terms, then `CCCCNc1ncc2c(-c3ccc(S(=O)(=O)N4CCN(C(=O)COCCOCCOCCOCC(=O)N[C@H](C(=O)N5C[C@H](O)C[C@H]5C(=O)NCc5ccc(-c6scnc6C)cc5)C(C)(C)C)CC4)cc3)nn([C@H]3CC[C@H](O)CC3)c2n1` [I-31, (2S,4R)-1-((S)-2-(tert-butyl)-17-(4-((4-(6-(butylamino)-1-(trans-4-hydroxycyclohexyl)-1H-pyrazolo[3,4-d]pyrimidin-3-yl)phenyl)sulfonyl)piperazin-1-yl)-4,17-dioxo-6,9,12,15-tetraoxa-3-azaheptadecanoyl)-4-hydroxy-N-(4-(4-methylthiazol-5-yl)benzyl)pyrrolidine-2-carboxamide], with 20 to 50%; and `CCCCNc1ncc2c(-c3ccc(S(=O)(=O)N4CCN(C(=O)COCCOCCOCCOCCNc5cccc6c5C(=O)N(C5CCC(=O)NC5=O)C6=O)CC4)cc3)nn([C@H]3CC[C@H](O)CC3)c2n1` (stereo partly drawn) [I-32, 4-((14-(4-((4-(6-(butylamino)-1-(trans-4-hydroxycyclohexyl)-1H-pyrazolo[3,4-d]pyrimidin-3-yl)phenyl)sulfonyl)piperazin-1-yl)-14-oxo-3,6,9,12-tetraoxatetradecyl)amino)-2-(2,6-dioxopiperidin-3-yl)isoindoline-1,3-dione], with above 50%. With `CCCCNc1ncc2c(-c3ccc(S(=O)(=O)N4CCN(CCOCCOCCOCCOCC(=O)N[C@H](C(=O)N5C[C@H](O)C[C@H]5C(=O)NCc5ccc(-c6scnc6C)cc5)C(C)(C)C)CC4)cc3)nn([C@H]3CC[C@H](O)CC3)c2n1` [I-33, (2S,4R)-1-((S)-2-(tert-butyl)-17-(4-((4-(6-(butylamino)-1-(trans-4-hydroxycyclohexyl)-1H-pyrazolo[3,4-d]pyrimidin-3-yl)phenyl)sulfonyl)piperazin-1-yl)-4-oxo-6,9,12,15-tetraoxa-3-azaheptadecanoyl)-4-hydroxy-N-(4-(4-methylthiazol-5-yl)benzyl)pyrrolidine-2-carboxamide], the Dmax was above 50%. The same measure, in the same setting: then `CCCCNc1ncc2c(-c3ccc(S(=O)(=O)N4CCN(CCOCCOCCOCCOCCNc5cccc6c5C(=O)N(C5CCC(=O)NC5=O)C6=O)CC4)cc3)nn([C@H]3CC[C@H](O)CC3)c2n1` (stereo partly drawn) [I-34, 4-((14-(4-((4-(6-(butylamino)-1-(trans-4-hydroxycyclohexyl)-1H-pyrazolo[3,4-d]pyrimidin-3-yl)phenyl)sulfonyl)piperazin-1-yl)-3,6,9,12-tetraoxatetradecyl)amino)-2-(2,6-dioxopiperidin-3-yl)isoindoline-1,3-dione], with above 50%; and `CCCCNc1ncc2c(-c3ccc(CN4CCN(CCOCCOCCOCCOCCNc5cccc6c5n(C)c(=O)n6C5CCC(=O)NC5=O)CC4)cc3)cn([C@H]3CC[C@H](O)CC3)c2n1` (stereo partly drawn) [I-36, trans-3-(4-[15-[4-([4-[2-(butylamino)-7-[4-hydroxycyclohexyl]-7H-pyrrolo[2,3-d]pyrimidin-5-yl]phenyl]methyl)piperazin-1-yl]-4,7,10,13-tetraoxa-1-azapentadecan-1-yl]-3-methyl-2-oxo-2,3-dihydro-1H-1,3-benzodiazol-1-yl)piperidine-2,6-dione], with above 50%.
